{"source": "patent US5925769A", "about": "“Acetylenic 1,5-diarylpyrazoles as antiinflammatory agents” (Ortho Pharmaceutical, Corp., priority 1998, dated 1999)", "key": {"CO [1]": {"molecular_target": "T1, CO (Rattus norvegicus, UniProt Q63921)", "T1 construct": "the supernatant was saved as the source of enzymes; endogenous in cells; host or cells: RBL-1 (rat basophilic leukemia) cells", "T1 sequence (Q63921 27-602)": "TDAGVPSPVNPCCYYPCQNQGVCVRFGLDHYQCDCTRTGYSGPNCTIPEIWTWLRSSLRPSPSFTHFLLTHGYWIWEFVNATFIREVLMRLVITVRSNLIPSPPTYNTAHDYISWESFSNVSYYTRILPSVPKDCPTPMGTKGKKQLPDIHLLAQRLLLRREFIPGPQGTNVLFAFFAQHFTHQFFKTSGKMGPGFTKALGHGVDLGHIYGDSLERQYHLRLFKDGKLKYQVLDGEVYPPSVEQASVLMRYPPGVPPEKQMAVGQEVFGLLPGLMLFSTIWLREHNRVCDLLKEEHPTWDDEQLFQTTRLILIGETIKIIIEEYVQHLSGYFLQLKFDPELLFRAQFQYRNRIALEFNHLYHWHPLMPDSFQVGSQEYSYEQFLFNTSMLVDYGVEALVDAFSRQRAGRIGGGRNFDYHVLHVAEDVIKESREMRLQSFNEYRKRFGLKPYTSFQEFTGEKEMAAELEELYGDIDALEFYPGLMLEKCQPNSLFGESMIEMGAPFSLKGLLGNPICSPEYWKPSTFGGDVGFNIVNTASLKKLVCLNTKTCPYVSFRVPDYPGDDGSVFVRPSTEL", "assay": "Procedure II: CO activity in broken RBL-1 cells (homogenate supernatant)", "type": "biochemical", "conditions": "RBL-1 broken cell supernatant; read-out: Proc. II CO IC50", "method_in_brief": "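Supernatant from rat RBL-1 homogenate (9,220×g) was pre-incubated 5 min at 37 °C with 2 mM CaCl2 and compound or 1% DMSO, then with 1-^14C-arachidonic acid for 20 min at 37 °C.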"}, "CO [2]": {"molecular_target": "T1, CO", "assay": "Procedure III: CO (PgD2) in intact RBL-1 cells", "type": "cell-based", "conditions": "calcium ionophore A 23187, read-out: Proc. III CO IC50", "method_in_brief": "(§1)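 Intact RBL-1 cells at 1×10^5 cells/mL in HBSS were preincubated with vehicle or drug, pelleted and resuspended, then given 1-^14C-AA. 5-HETE (5-LO) and PgD2 (CO) were separated by TLC after acidification/extraction and quantified by radioimaging; IC50 from regression curve fit.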"}, "5-LO [3]": {"molecular_target": "T2, 5-LO (Rattus norvegicus, UniProt P12527)", "T2 construct": "the supernatant was saved as the source of enzymes; endogenous in cells; host or cells: RBL-1 (rat basophilic leukemia) cells", "T2 sequence (P12527 1-673)": "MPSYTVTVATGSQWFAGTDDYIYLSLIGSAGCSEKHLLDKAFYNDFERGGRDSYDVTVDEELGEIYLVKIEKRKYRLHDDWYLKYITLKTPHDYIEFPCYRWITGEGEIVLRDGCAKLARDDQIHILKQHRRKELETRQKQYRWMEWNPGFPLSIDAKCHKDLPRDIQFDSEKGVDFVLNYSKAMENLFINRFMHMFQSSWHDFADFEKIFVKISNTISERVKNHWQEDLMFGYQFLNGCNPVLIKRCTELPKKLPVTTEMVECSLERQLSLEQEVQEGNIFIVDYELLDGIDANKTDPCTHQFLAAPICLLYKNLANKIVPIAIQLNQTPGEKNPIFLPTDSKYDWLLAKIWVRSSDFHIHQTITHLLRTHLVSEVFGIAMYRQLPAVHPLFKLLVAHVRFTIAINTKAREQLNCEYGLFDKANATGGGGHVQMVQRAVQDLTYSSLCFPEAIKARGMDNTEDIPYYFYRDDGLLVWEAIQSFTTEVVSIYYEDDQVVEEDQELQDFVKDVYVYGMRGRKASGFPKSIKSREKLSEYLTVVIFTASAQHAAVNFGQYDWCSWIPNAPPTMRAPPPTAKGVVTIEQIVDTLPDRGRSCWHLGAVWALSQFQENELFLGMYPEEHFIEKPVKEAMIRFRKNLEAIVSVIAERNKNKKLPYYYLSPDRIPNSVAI", "assay": "Procedure III: 5-LO (5-HETE) in intact RBL-1 cells", "type": "cell-based", "conditions": "calcium ionophore A 23187, read-out: Proc. III 5-LO IC50", "method_in_brief": "as §1"}, "5-LO [4]": {"test_system": "5-LO", "assay": "Procedure IV: ex vivo eicosanoid synthesis assay using dogs, 5-LO (LTB4)", "type": "in vivo", "conditions": "dog, oral, 5 mg/kg", "protocol": "Adult beagle or mongrel dogs (10-15 kg) of either sex were fasted overnight prior to the initiation of each experiment. The forelimb was clipped and swabbed with an alcohol prep (70% isopropanol). Blood was drawn by venipuncture into syringes containing lithium heparin (Starstead, Newton, N.C.) immediately prior to administration of compound or vehicle and then at various intervals following dosing. The test compound was administered orally as a suspension in 0.5% methocel. At various times after dosing, blood samples were drawn and placed on an electric rocker platform to assure complete and continuous mixing. White blood cell (wbc) counts were performed using a Sysmex hematology analyzer. This was done in an effort to normalize the number of leukocytes to be stimulated with calcium ionophore. A 1.0 mL aliquot of whole blood was challenged with 50 μL of a 2.6×10^-5 M solution of calcium ionophore A23187 (Calbiochem, La Jolla, Calif.) prepared in DMSO and diluted in HBSS. After a 15 minute incubation at 37° C., the reaction was stopped by placing the samples in an ice bath (4° C.) for 5 minutes and then centrifuging at 11,000×g for 5 minutes to separate the plasma fraction from blood cells. The plasma fraction was removed, diluted in an appropriate buffer, and analyzed for the presence of LTB4 and TxB2 by standard RIA techniques."}}}
{"smiles": "COc1ccc(-n2nc(C#CCN(O)C(N)=O)cc2-c2ccc(C)cc2)cc1", "note": "[Cpd 1, N-Hydroxy-N-(1(1-(4-methoxyphenyl)-5-(4-methylphenyl)pyrazol-3-yl)-1-propyn-3-yl)urea]", "values": [{"measurement": "IC50", "setting": "CO [1]", "result": 0.31, "unit": "µM"}, {"measurement": "IC50", "setting": "CO [2]", "result": 12.1, "unit": "µM"}, {"measurement": "IC50", "setting": "5-LO [3]", "result": 4.7, "unit": "µM"}, {"measurement": "% inh 5-LO", "setting": "5-LO [4]; 1 h", "result": 56, "unit": "%"}, {"measurement": "% inh 5-LO", "setting": "5-LO [4]; 2 h", "result": 53, "unit": "%"}, {"measurement": "% inh 5-LO", "setting": "5-LO [4]; 4 h", "result": 32, "unit": "%"}, {"measurement": "% inh 5-LO", "setting": "5-LO [4]; 8 h", "result": 15, "unit": "%"}, {"measurement": "% inh 5-LO", "setting": "5-LO [4]; 24 h", "result": 10, "unit": "%"}]}
